Assay results taken from patent US11739074B2, “Ras inhibitors” (Revolution Medicines, Inc., priority 2019, dated 2023).
Read-outs that look alike come from different tables or passages of the source.

Columns and labels:
AsPC-1 (K-Ras G12D) [1] = test: Potency assay: pERK in AsPC-1 cells; format: cell-based; details: Homo sapiens
NCI-H358 (K-Ras G12C) = test: CellTiter-Glo cell viability assay, H358; format: cell-based; details: Homo sapiens, NCI-H358, 120 h
Outline: (§1)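 Viability is scored by CellTiter-Glo luminescence on day 5 of compound treatment, relative to vehicle (DMSO) wells set as 100%, with a four-parameter logistic fit.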

KRAS G13C = KRAS G13C (Homo sapiens, UniProt P01116+P62937, G13C); test: Ras-Raf disruption/FRET/MOA assay, KRAS G13C; format: biochemical
Sequence of KRAS G13C (P01116 1-169 isoform P01116-2 G13C limits assumed): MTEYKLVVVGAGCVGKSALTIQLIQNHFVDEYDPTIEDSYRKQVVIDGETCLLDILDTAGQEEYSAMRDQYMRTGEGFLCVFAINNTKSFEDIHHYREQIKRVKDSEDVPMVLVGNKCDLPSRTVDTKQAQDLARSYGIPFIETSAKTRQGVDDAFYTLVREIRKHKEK
Sequence of KRAS G13C (P62937 whole entry): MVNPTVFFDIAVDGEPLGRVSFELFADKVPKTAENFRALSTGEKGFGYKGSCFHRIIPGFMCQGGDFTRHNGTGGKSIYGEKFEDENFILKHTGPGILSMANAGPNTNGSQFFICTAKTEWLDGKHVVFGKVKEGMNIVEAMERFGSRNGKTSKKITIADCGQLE
Outline: (§2)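 His6-KRAS-GMPPNP (12.5 nM) was combined with tagless Cyclophilin A (25 μM) and GST-BRAF^RBD (50 nM) in pH 7.3 HEPES buffer with NaCl, MgCl2, Tween20 and BSA. Compound was tested as a 10-point 3-fold series from 30 μM final, 3 h at 25° C. Disruption was read as a drop in TR-FRET ratio versus DMSO.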

NRAS G12C = biological target: T1, NRAS G12C (Homo sapiens, UniProt P01111+P62937, G12C); test: Ras-Raf disruption/FRET/MOA assay, NRAS G12C; format: biochemical
T1 construct: His6
T1 sequence (P01111 whole entry G12C): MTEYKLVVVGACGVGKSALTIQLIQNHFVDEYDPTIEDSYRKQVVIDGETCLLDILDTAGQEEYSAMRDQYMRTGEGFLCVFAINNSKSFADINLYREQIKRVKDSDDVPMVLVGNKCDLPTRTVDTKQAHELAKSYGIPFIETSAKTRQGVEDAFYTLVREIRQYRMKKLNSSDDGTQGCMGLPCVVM
T1 sequence (P62937 whole entry): as the sequence (P62937 whole entry) above
Outline: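 Disruption of Ras:RAF binding was read as a drop in TR-FRET ratio versus DMSO controls. The buffer was 25 mM HEPES pH 7.3, 0.002% Tween20, 0.1% BSA, 100 mM NaCl and 5 mM MgCl2. Compounds were tested as a 10-point 3-fold dilution series from 30 μM. Detection used 10 nM anti-His Eu-W1024 and 50 nM anti-GST allophycocyanin.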

KRAS G13D = KRAS G13D (Homo sapiens, UniProt P01116+P62937, G13D); test: Ras-Raf disruption/FRET/MOA assay, KRAS G13D; format: biochemical
Sequence of KRAS G13D (P01116 1-169 isoform P01116-2 G13D limits assumed): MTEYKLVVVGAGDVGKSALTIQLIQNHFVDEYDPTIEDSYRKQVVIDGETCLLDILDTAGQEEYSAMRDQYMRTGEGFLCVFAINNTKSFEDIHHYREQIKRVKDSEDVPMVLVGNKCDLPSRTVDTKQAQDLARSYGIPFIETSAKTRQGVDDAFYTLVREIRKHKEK
Sequence of KRAS G13D (P62937 whole entry): as the sequence (P62937 whole entry) above
Outline: as §2

AsPC-1 (K-Ras G12D) [2] = test: CellTiter-Glo cell viability assay, AsPC-1; format: cell-based; details: Homo sapiens, ASPC1, 120 h
Outline: as §1

KRAS G12C = KRAS G12C (Homo sapiens, UniProt P01116+P62937, G12C); test: Ras-Raf disruption/FRET/MOA assay, KRAS G12C; format: biochemical
Sequence of KRAS G12C (P01116 1-169 isoform P01116-2 G12C limits assumed): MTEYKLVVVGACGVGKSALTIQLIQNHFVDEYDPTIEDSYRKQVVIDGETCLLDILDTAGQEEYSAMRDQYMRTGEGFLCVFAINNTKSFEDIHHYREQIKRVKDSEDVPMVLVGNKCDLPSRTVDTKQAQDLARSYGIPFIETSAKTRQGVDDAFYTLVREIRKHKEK
Sequence of KRAS G12C (P62937 whole entry): as the sequence (P62937 whole entry) above
Outline: as §2

KRAS G12D = KRAS G12D (Homo sapiens, UniProt P01116+P62937, G12D); test: Ras-Raf disruption/FRET/MOA assay, KRAS G12D; format: biochemical
Sequence of KRAS G12D (P01116 1-169 isoform P01116-2 G12D limits assumed): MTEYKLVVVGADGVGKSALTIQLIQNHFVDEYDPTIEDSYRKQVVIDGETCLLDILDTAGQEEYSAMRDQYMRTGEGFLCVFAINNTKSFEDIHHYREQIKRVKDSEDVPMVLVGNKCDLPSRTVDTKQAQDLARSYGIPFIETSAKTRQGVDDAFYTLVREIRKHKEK
Sequence of KRAS G12D (P62937 whole entry): as the sequence (P62937 whole entry) above
Outline: as §2

KRAS G12S = KRAS G12S (Homo sapiens, UniProt P01116+P62937, G12S); test: Ras-Raf disruption/FRET/MOA assay, KRAS G12S; format: biochemical
Sequence of KRAS G12S (P01116 1-169 isoform P01116-2 G12S limits assumed): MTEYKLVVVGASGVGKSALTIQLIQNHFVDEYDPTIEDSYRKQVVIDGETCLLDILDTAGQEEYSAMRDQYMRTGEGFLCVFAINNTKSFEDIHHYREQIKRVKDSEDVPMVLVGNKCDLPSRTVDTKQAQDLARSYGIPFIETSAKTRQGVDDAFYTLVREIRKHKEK
Sequence of KRAS G12S (P62937 whole entry): as the sequence (P62937 whole entry) above
Outline: as §2

KRAS WT = KRAS WT (Homo sapiens, UniProt P01116+P62937); test: Ras-Raf disruption/FRET/MOA assay, KRAS WT; format: biochemical
Sequence of KRAS WT (P01116 1-169 isoform P01116-2 limits assumed): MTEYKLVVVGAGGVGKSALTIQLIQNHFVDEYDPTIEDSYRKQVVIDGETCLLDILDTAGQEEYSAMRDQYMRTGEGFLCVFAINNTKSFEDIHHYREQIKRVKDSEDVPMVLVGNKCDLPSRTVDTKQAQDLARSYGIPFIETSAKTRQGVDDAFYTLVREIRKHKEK
Sequence of KRAS WT (P62937 whole entry): as the sequence (P62937 whole entry) above
Outline: as §2

KRAS G12V = KRAS G12V (Homo sapiens, UniProt P01116+P62937, G12V); test: Ras-Raf disruption/FRET/MOA assay, KRAS G12V; format: biochemical
Sequence of KRAS G12V (P01116 1-169 isoform P01116-2 G12V limits assumed): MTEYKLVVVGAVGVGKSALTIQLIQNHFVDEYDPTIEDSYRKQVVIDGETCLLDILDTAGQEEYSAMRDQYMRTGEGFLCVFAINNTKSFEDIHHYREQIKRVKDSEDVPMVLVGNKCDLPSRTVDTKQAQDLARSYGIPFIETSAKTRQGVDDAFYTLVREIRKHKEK
Sequence of KRAS G12V (P62937 whole entry): as the sequence (P62937 whole entry) above
Outline: as §2

[3] = ASPC1, read-out: pERK EC50 (AsPC-1 KRAS G12D)
[4] = read-out: H358 Cell Viability IC50
[5] = disruption of BRAF RBD binding, with Cyclophilin A, read-out: KRAS G13C FRET IC50
[6] = NRAS G12C, read-out: NRAS G12C FRET data IC50
[7] = disruption of BRAF RBD binding, with Cyclophilin A, read-out: KRAS G13D FRET IC50
[8] = read-out: AsPC-1 Cell Viability IC50
[9] = disruption of BRAF RBD binding, with Cyclophilin A, read-out: KRAS G12C FRET IC50
[10] = disruption of BRAF RBD binding, with Cyclophilin A, read-out: KRAS G12D FRET IC50
[11] = disruption of BRAF RBD binding, with Cyclophilin A, read-out: KRAS G12S FRET IC50
[12] = disruption of BRAF RBD binding, with Cyclophilin A, read-out: KRAS WT FRET IC50
[13] = disruption of BRAF RBD binding, with Cyclophilin A, read-out: KRAS G12V FRET IC50
[14] = ASPC1, AsPC-1 cells, K-Ras G12D, read-out: pERK EC50 (AsPC-1 KRAS G12D)
[15] = AsPC-1, K-Ras G12D, 5-day treatment, read-out: AsPC-1 Cell Viability IC50

Structure (SMILES)	EC50 (AsPC-1 (K-Ras G12D) [1]; [3]) [nM]	IC50 (KRAS G13C; [5]) [nM]	IC50 (NRAS G12C; [6]) [nM]	IC50 (KRAS G13D; [7]) [nM]	IC50 (AsPC-1 (K-Ras G12D) [2]; [8]) [nM]	IC50 (KRAS G12C; [9]) [nM]	IC50 (KRAS G12D; [10]) [nM]	IC50 (KRAS G12S; [11]) [nM]	IC50 (KRAS WT; [12]) [nM]	IC50 (KRAS G12V; [13]) [nM]	other results
CCn1c(-c2cnccc2COC)c2c3cc(ccc31)-c1cc(O)cc(c1)C[C@H](NC(=O)[C@H](C(C)C)N(C)C(=O)CN(C)C(=O)[C@@H]1CN1Cc1ccccc1)C(=O)N1CCC[C@H](N1)C(=O)OCC(C)(C)C2 (some centres unmarked) [Compound 10]	< 5000	–	–	–	–	–	–	–	–	–	IC50 (NCI-H358 (K-Ras G12C); read-out: H358 Cell Viability IC50, NCI-H358, K-Ras G12C, 5-day treatment): 10 to 100 nM; IC50 (KRAS G13C): 100 to 1000 nM; IC50 (NRAS G12C; NRAS G12C FRET data IC50, NRAS G12C): 10 to 100 nM; IC50 (KRAS G13D): 1000 to 10000 nM; IC50 (AsPC-1 (K-Ras G12D) [2]; read-out: AsPC-1 Cell Viability IC50, AsPC-1, K-Ras G12D, 5-day treatment): 1000 to 10000 nM; IC50 (KRAS G12C): 10 to 100 nM; IC50 (KRAS G12D): 1000 to 10000 nM; IC50 (KRAS G12S): 10 to 100 nM; IC50 (KRAS WT): 100 to 1000 nM; IC50 (KRAS G12V): 100 to 1000 nM
CCn1c(-c2cnccc2COC)c2c3cc(ccc31)-c1cc(O)cc(c1)C[C@H](NC(=O)[C@H](C(C)C)N(C)C(=O)CN(C)C(=O)C1CN1C(C)=O)C(=O)N1CCC[C@H](N1)C(=O)OCC(C)(C)C2 (some centres unmarked) [Compound 14]	< 5000	10 to 100	10 to 100	100 to 1000	1000 to 10000	10 to 100	100 to 1000	100 to 1000	100 to 1000	100 to 1000	IC50 (NCI-H358 (K-Ras G12C); [4]): 100 to 1000 nM
CCn1c(-c2cnccc2COC)c2c3cc(ccc31)-c1cc(O)cc(c1)C[C@H](NC(=O)[C@H](C(C)C)N(C)C(=O)CN(C)C(=O)C1CN1S(C)(=O)=O)C(=O)N1CCC[C@H](N1)C(=O)OCC(C)(C)C2 (some centres unmarked) [Compound 13]	< 5000	10 to 100	10 to 100	100 to 1000	1000 to 10000	10 to 100	100 to 1000	10 to 100	10 to 100	10 to 100	IC50 (NCI-H358 (K-Ras G12C); [4]): 10 to 100 nM
CCn1c(-c2cccnc2[C@H](C)OC)c2c3cc(ccc31)-c1cc(O)cc(c1)C[C@H](NC(=O)[C@H](C1CCCC1)N(C)C(=O)[C@H]1CCN(C(=O)[C@H]3CN3)C1)C(=O)N1CCC[C@H](N1)C(=O)OCC(C)(C)C2 [Compound 58]	–	10 to 100	< 10	10 to 100	–	< 10	100 to 1000	10 to 100	10 to 100	10 to 100	EC50 (AsPC-1 (K-Ras G12D) [1]; [14]): < 5000 nM; IC50 (NCI-H358 (K-Ras G12C); NCI-H358, K-Ras G12C, 5-day treatment, read-out: H358 Cell Viability IC50): < 10 nM; IC50 (AsPC-1 (K-Ras G12D) [2]; [15]): 100 to 1000 nM
CCn1c(-c2cnccc2COC)c2c3cc(ccc31)-c1cc(O)cc(c1)C[C@H](NC(=O)[C@H](C(C)C)N(C)C(=O)CN(C)C(=O)[C@@H]1[C@H](C)N1[S@@+]([O-])C(C)(C)C)C(=O)N1CCC[C@H](N1)C(=O)OCC(C)(C)C2 (some centres unmarked) [Compound 54]	< 5000	10 to 100	10 to 100	100 to 1000	1000 to 10000	10 to 100	100 to 1000	10 to 100	10 to 100	100 to 1000	–
CCn1c(-c2cccnc2[C@H](C)OC)c2c3cc(ccc31)-c1cc(O)cc(c1)C[C@H](NC(=O)[C@H](C(C)C)N1CC[C@]3(CCCN(C(=O)[C@@H]4CN4)C3)C1=O)C(=O)N1CCC[C@H](N1)C(=O)OCC(C)(C)C2 [Compound 192]	–	100 to 1000	< 10	1000 to 10000	–	< 10	100 to 1000	100 to 1000	100 to 1000	10 to 100	EC50 (AsPC-1 (K-Ras G12D) [1]; [14]): < 5000 nM; IC50 (AsPC-1 (K-Ras G12D) [2]; [15]): 1000 to 10000 nM
CCn1c(-c2cnccc2COC)c2c3cc(ccc31)-c1cc(O)cc(c1)C[C@H](NC(=O)[C@H](C(C)C)N(C)C(=O)CN(C)C(=O)[C@H]1CN1C(C)=O)C(=O)N1CCC[C@H](N1)C(=O)OCC(C)(C)C2 [Example 34, (2R)-1-acetyl-N-(2-(((2S)-1-(((6^3S,4S)-1^1-ethyl-2^5-hydroxy-1^2-(4-(methoxymethyl)pyridin-3-yl)-10,10-dimethyl-5,7-dioxo-6^1,6^2,6^3,6^4,6^5,6^6-hexahydro-1^1H-8-oxa-1(5,3)-indola-6(1,3)-pyridazina-2(1,3)-benzenacycloundecaphane-4-yl)amino)-3-methyl-1-oxobutan-2-yl)(methyl)amino)-2-oxoethyl)-N-methylaziridine-2-carboxamide]	< 5000	10 to 100	10 to 100	100 to 1000	1000 to 10000	10 to 100	100 to 1000	10 to 100	100 to 1000	100 to 1000	–
